Reference: patent publication US4097595A, “7-Amino-thiazolyl acetamido cephalosporanic acids” (Roussel Uclaf, priority 1976, dated 1978)
Values after ≈ are worked out from the molar mass of the structure shown. Like-named read-outs stand apart in the source and are kept apart here.

Experiments:
Assay type in all cases: cell-based
[1] = test system: Streptococcus faecalis 5 432; assay: MIC, dilution method in liquid media, Streptococcus faecalis 5 432
Protocol: (§1) A series of tubes were prepared with the same quantity of sterile nutrive media and increasing quantities of the test product was distributed to each tube. Then, each tube was seeded with a bacterial strain and after incubation at 37° C for 24 or 48 hours, the inhibition of the growth was determined by transillumination which permitted determination of the minimum inhibitory concentrations (M.I.C.) in μg/ml.

[2] = test system: Klebsiella pneumoniae 52 145; assay: MIC, dilution method in liquid media, Klebsiella pneumoniae 52 145
Protocol: as §1

[3] = test system: Staphylococcus aureus UC 1 061 (penicillin sensible); assay: MIC, dilution method in liquid media, Staphylococcus aureus UC 1061, penicillin sensible; settings: penicillin sensible
Protocol: as §1

[4] = test system: Staphylococcus aureus UC 1128 (penicillin resistant); assay: MIC, dilution method in liquid media, Staphylococcus aureus UC 1128, penicillin resistant
Protocol: as §1

[5] = test system: Escherichia Coli (T) 0 26 B 6; assay: MIC, dilution method in liquid media, Escherichia Coli (T) 026 B6
Protocol: as §1

Salmonella Typhimurium = assay: MIC, dilution method in liquid media, Salmonella Typhimurium; settings: Salmonella enterica, strain 420 (Tables II, IV)
Protocol: as §1

Bacillus subtilis = assay: MIC, dilution method in liquid media, Bacillus subtilis
Protocol: as §1

[6] = test system: Escherichia Coli R 55 123 D; assay: MIC, dilution method in liquid media, Escherichia Coli R 55 123 D; settings: COLIR55123D
Protocol: as §1

[7] = test system: Escherichia Coli UC 1 261; assay: MIC, dilution method in liquid media, Escherichia Coli UC 1 261; settings: read-out: MIC
Protocol: as §1

[8] = test system: Streptococcus pyogenes A 561; assay: MIC, dilution method in liquid media, Streptococcus pyogenes A 561
Protocol: as §1

[9] = test system: Proteus mirabilis (indol); assay: MIC, dilution method in liquid media, Proteus mirabilis (indol)
Protocol: as §1

[10] = test system: Staphylococcus aureus 54 146; assay: MIC, dilution method in liquid media, Staphylococcus aureus 54 146
Protocol: as §1

[11] = test system: Escherichia Coli UC 1 020; assay: MIC, dilution method in liquid media, Escherichia Coli UC 1 020
Protocol: as §1

[12] = test system: Bacillus subtilis ATCC 6 633; assay: MIC, dilution method in liquid media, Bacillus subtilis ATCC 6 633
Protocol: as §1

[13] = test system: Staphylococcus aureus ATCC 6 538; assay: MIC, dilution method in liquid media, Staphylococcus aureus ATCC 6 538
Protocol: as §1

Serratia RG 2 532 = assay: MIC, dilution method in liquid media, Serratia RG 2 532
Protocol: as §1

[14] = test system: Streptococcus faecalis 99 F 74; assay: MIC, dilution method in liquid media, Streptococcus faecalis 99 F 74; settings: Enterococcus faecalis
Protocol: as §1

[15] = Enterococcus faecalis, 5432, 24 h, read-out: MIC
[16] = Klebsiella pneumoniae, 52145, 24 h, read-out: MIC
[17] = Klebsiella pneumoniae, 52145, 48 h, read-out: MIC
[18] = Staphylococcus aureus, 54146, 24 h, read-out: MIC
[19] = Staphylococcus aureus, 54146, 48 h, read-out: MIC

SMILES: Nc1nc(CC(=O)NC2C(=O)N3C(C(=O)O)=C(CSC(=O)c4csc(=O)[nH]4)CSC23)cs1 (stereo not drawn) [Example 4, 7-[2-(2-amino-4-thiazolyl)-acetamido]-3-[{(2-oxo-(3H)-thiazolin-4-yl)-carbonyl}-thiomethyl]-ceph-3-eme-4-carboxylic acid]
- MIC [1, 15]: 10 µg/mL (≈ 19.5 µM)
- MIC ([1]; Enterococcus faecalis, 5432, 48 h): > 40 µg/mL
- MIC [2, 16]: 0.1 µg/mL (≈ 0.195 µM)
- MIC [2, 17]: 0.2 µg/mL (≈ 0.389 µM)
- MIC ([3]; UC1, 24 H): 0.2 µg/mL (≈ 0.389 µM)
- MIC ([3]; UC1, 48 H): 0.5 µg/mL (≈ 0.974 µM)
- MIC ([4]; UC1128, 24 H): 1 µg/mL (≈ 1.95 µM)
- MIC ([4]; UC1128, 48 H): 1 µg/mL (≈ 1.95 µM)
- MIC ([5]; 24 h): 2 µg/mL (≈ 3.89 µM)
- MIC ([5]; 48 h): 3 µg/mL (≈ 5.84 µM)
- MIC (Salmonella Typhimurium; 24 H): 3 µg/mL (≈ 5.84 µM)
- MIC (Salmonella Typhimurium; 48 H): 3 µg/mL (≈ 5.84 µM)
- MIC (Bacillus subtilis; 24 h, read-out: MIC): 0.1 µg/mL (≈ 0.195 µM)
- MIC (Bacillus subtilis; 48 h): 0.1 µg/mL (≈ 0.195 µM)
- MIC ([6]; 24 h): 5 µg/mL (≈ 9.74 µM)
- MIC ([6]; 48 h, read-out: MIC): 10 µg/mL (≈ 19.5 µM)
- MIC ([7]; UC1, 24 h): 1 µg/mL (≈ 1.95 µM)
- MIC ([7]; UC1, 48 h): 1 µg/mL (≈ 1.95 µM)
- MIC ([8]; A561, 24 h): 0.1 µg/mL (≈ 0.195 µM)
- MIC ([8]; A561, 48 h): 0.2 µg/mL (≈ 0.389 µM)
- MIC ([9]; 24 H, A 235, read-out: MIC): 0.6 µg/mL (≈ 1.17 µM)
- MIC ([9]; 48 H, A 235, read-out: MIC): 0.6 µg/mL (≈ 1.17 µM)
- MIC [10, 18]: 0.5 µg/mL (≈ 0.974 µM)
- MIC [10, 19]: 1 µg/mL (≈ 1.95 µM)
- MIC ([11]; UC1, 24 h): 2 µg/mL (≈ 3.89 µM)
- MIC ([11]; UC1, 48 h): 2 µg/mL (≈ 3.89 µM)

SMILES: Nc1nc(CC(=O)NC2C(=O)N3C(C(=O)O)=C(CSC(=O)c4ccco4)CS[C@H]23)cs1 (stereo partly drawn) [Example 5, 7-[2-(2-amino-4-thiazolyl)-acetamido]-3-[{(2-furyl)-carbonyl}thiomethyl]-ceph-3-eme-4-carboxylic acid]
- MIC [1, 15]: 5 µg/mL (≈ 10.4 µM)
- MIC ([1]; Enterococcus faecalis, 5432, 48 h, read-out: MIC): 40 µg/mL (≈ 83.2 µM)
- MIC ([2]; Klebsiella pneumoniae, 52145, 24 h): 0.4 µg/mL (≈ 0.832 µM)
- MIC [2, 17]: 1 µg/mL (≈ 2.08 µM)
- MIC ([12]; ATCC6, 24 h): 0.2 µg/mL (≈ 0.416 µM)
- MIC ([12]; ATCC6, 48 h): 0.2 µg/mL (≈ 0.416 µM)
- MIC ([3]; UC1, 24 H): 0.5 µg/mL (≈ 1.04 µM)
- MIC ([3]; UC1, 48 H): 1 µg/mL (≈ 2.08 µM)
- MIC ([4]; UC1128, 24 H): 1 µg/mL (≈ 2.08 µM)
- MIC ([4]; UC1128, 48 H): 2 µg/mL (≈ 4.16 µM)
- MIC ([5]; 24 h): 10 µg/mL (≈ 20.8 µM)
- MIC ([5]; 48 h): 10 µg/mL (≈ 20.8 µM)
- MIC (Salmonella Typhimurium; 24 H): 10 µg/mL (≈ 20.8 µM)
- MIC ([13]; ATCC6, 24 h, read-out: MIC): 0.5 µg/mL (≈ 1.04 µM)
- MIC ([13]; ATCC6, 48 h, read-out: MIC): 1 µg/mL (≈ 2.08 µM)
- MIC ([6]; 24 h, read-out: MIC): 10 µg/mL (≈ 20.8 µM)
- MIC ([6]; 48 h, read-out: MIC): 10 µg/mL (≈ 20.8 µM)
- MIC ([7]; UC1, 24 h): 2 µg/mL (≈ 4.16 µM)
- MIC ([7]; UC1, 48 h): 2 µg/mL (≈ 4.16 µM)
- MIC ([8]; A561, 24 h): 0.1 µg/mL (≈ 0.208 µM)
- MIC ([8]; A561, 48 h): 0.1 µg/mL (≈ 0.208 µM)
- MIC ([9]; 24 H, A 235, read-out: MIC): 2 µg/mL (≈ 4.16 µM)
- MIC ([9]; 48 H, A 235, read-out: MIC): 2 µg/mL (≈ 4.16 µM)
- MIC [10, 18]: 1 µg/mL (≈ 2.08 µM)
- MIC [10, 19]: 1 µg/mL (≈ 2.08 µM)
- MIC ([11]; UC1, 24 h, read-out: MIC): 10 µg/mL (≈ 20.8 µM)
- MIC ([11]; UC1, 48 h, read-out: MIC): 10 µg/mL (≈ 20.8 µM)

SMILES: CCC(=O)SCC1=C(C(=O)O)N2C(=O)C(NC(=O)Cc3csc(N)n3)[C@H]2SC1 (stereo partly drawn) [Example 6, 7-[2-(2-amino-4-thiazolyl)-acetamido]-3-propionylthiomethyl-ceph-3-eme-4-carboxylic acid]
- MIC [2, 16]: 3 µg/mL (≈ 6.78 µM)
- MIC ([2]; Klebsiella pneumoniae, 52145, 48 h): 5 µg/mL (≈ 11.3 µM)
- MIC ([12]; ATCC6, 24 h): 0.1 µg/mL (≈ 0.226 µM)
- MIC ([12]; ATCC6, 48 h): 0.1 µg/mL (≈ 0.226 µM)
- MIC ([3]; UC1, 24 H): 0.6 µg/mL (≈ 1.36 µM)
- MIC ([3]; UC1, 48 H): 0.6 µg/mL (≈ 1.36 µM)
- MIC (Serratia RG 2 532; RG2532, 24 h): 10 µg/mL (≈ 22.6 µM)
- MIC (Serratia RG 2 532; RG2532, 48 h): 10 µg/mL (≈ 22.6 µM)
- MIC ([4]; UC1128, 24 H): 1 µg/mL (≈ 2.26 µM)
- MIC ([4]; UC1128, 48 H): 1 µg/mL (≈ 2.26 µM)
- MIC ([5]; 24 h): 40 µg/mL (≈ 90.4 µM)
- MIC ([5]; 48 h): 40 µg/mL (≈ 90.4 µM)
- MIC (Salmonella Typhimurium; 24 H): 5 µg/mL (≈ 11.3 µM)
- MIC (Salmonella Typhimurium; 48 H): 5 µg/mL (≈ 11.3 µM)
- MIC ([13]; ATCC6, 24 h, read-out: MIC): 0.2 µg/mL (≈ 0.452 µM)
- MIC ([13]; ATCC6, 48 h): 0.4 µg/mL (≈ 0.904 µM)
- MIC ([7]; UC1, 24 h): 10 µg/mL (≈ 22.6 µM)
- MIC ([7]; UC1, 48 h): 10 µg/mL (≈ 22.6 µM)
- MIC ([8]; A561, 24 h): 0.2 µg/mL (≈ 0.452 µM)
- MIC ([8]; A561, 48 h): 0.2 µg/mL (≈ 0.452 µM)
- MIC ([14]; 99F74, 24 h): 20 µg/mL (≈ 45.2 µM)
- MIC ([14]; 99F74, 48 h, read-out: MIC): 40 µg/mL (≈ 90.4 µM)
- MIC ([9]; 24 H, A 235, read-out: MIC): 10 µg/mL (≈ 22.6 µM)
- MIC ([9]; 48 h): 20 µg/mL (≈ 45.2 µM)
- MIC [10, 18]: 1 µg/mL (≈ 2.26 µM)
- MIC ([10]; Staphylococcus aureus, 54146, 48 h): 2 µg/mL (≈ 4.52 µM)
- MIC ([11]; UC1, 24 h, read-out: MIC): 10 µg/mL (≈ 22.6 µM)
- MIC ([11]; UC1, 48 h, read-out: MIC): 10 µg/mL (≈ 22.6 µM)
